# ChEMBL document CHEMBL4359816, “Discovery and Optimization of Quinolinone Derivatives as Potent, Selective, and Orally Bioavailable Mutant Isocitrate Dehydrogenase 1 (mIDH1) Inhibitors” (J Med Chem, 2019)
# Legend:
# [1] = tested on: MDR1 (P-gp); experiment: Efflux ratio of apparent permeability from basolateral side to apical side over apical side to basolateral side in MDCK cells harboring MDR1 (unknown origin) at 10 uM incubated for 2 hrs by LC-MS/MS analysis; type: ADME, cell-based, Canis lupus familiaris; details: dog
# [2] = target: T1, Isocitrate dehydrogenase [NADP] cytoplasmic (Homo sapiens, UniProt O75874, R132C); experiment: Inhibition of IDH1 R132C mutant in human HCT116 cells assessed as reduction in 2-HG levels after 24 hrs by RapidFire high-throughput mass spectrometry assay; type: cell-based
# T1 sequence (O75874 2-414 R132C limits assumed): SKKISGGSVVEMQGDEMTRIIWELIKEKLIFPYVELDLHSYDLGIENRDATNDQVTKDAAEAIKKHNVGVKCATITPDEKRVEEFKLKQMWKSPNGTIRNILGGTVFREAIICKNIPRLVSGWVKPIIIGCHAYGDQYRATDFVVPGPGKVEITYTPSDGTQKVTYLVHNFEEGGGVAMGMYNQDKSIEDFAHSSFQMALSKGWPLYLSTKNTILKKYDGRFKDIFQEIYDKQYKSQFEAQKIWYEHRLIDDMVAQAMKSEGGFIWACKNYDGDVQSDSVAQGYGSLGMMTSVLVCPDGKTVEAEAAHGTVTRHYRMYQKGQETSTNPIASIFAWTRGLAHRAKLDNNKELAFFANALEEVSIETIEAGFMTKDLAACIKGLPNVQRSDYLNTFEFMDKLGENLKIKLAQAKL
# [3] = Metabolic stability in human liver microsomes assessed as compound remaining after 30 mins; type: ADME, Microsome; details: read-out: Stability
# [4] = Half-life in BALB/c mouse at 5 mg/kg, po measured up to 24 hrs; type: ADME, organism-based; details: in vivo
# [5] = Metabolic stability in mouse liver microsomes assessed as compound remaining after 30 mins; type: ADME, Microsome; details: read-out: Stability
# [6] = target: Isocitrate dehydrogenase [NADP] cytoplasmic (Homo sapiens, UniProt O75874); experiment: Inhibition of wild-type IDH1 (unknown origin) by NADPH fluorescence based assay
# Isocitrate dehydrogenase [NADP] cytoplasmic (Homo sapiens, UniProt O75874), sequence (O75874 whole entry): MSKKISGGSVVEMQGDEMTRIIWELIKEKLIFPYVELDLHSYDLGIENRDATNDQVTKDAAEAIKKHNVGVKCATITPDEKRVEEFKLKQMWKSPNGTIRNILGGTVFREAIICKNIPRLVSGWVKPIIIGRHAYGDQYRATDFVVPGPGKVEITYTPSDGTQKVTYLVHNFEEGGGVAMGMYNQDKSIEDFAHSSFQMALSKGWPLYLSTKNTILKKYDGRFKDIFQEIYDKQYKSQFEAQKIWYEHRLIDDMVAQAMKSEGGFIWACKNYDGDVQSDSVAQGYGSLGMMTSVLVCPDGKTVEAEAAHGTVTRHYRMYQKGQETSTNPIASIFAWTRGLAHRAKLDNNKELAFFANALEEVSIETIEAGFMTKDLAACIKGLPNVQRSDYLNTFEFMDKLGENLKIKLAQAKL
# [7] = AUC (0 to 8 hrs) in BALB/c mouse at 5 mg/kg, po measured up to 24 hrs; type: ADME, organism-based; set-up: dose 5 mg/kg, time < 8 hr, route oral; details: in vivo
# [8] = target: T1, Isocitrate dehydrogenase [NADP] cytoplasmic; experiment: Inhibition of human Myc-DDK-tagged IDH1 R132C mutant expressed in human U87MG cells assessed as reduction in 2-HG levels after 24 hrs by RapidFire high-throughput mass spectrometry assay; type: cell-based
# [9] = Total Cmax in BALB/c mouse at 5 mg/kg, po after 1 hr; type: ADME, organism-based; set-up: dose 5 mg/kg, route oral; details: in vivo
# [10] = Kinetic solubility of the compound; type: physicochemical; details: read-out: Kinetic_solubility
# [11] = target: T1, Isocitrate dehydrogenase [NADP] cytoplasmic; experiment: Inhibition of human Myc-DDK-tagged IDH1 R132C mutant assessed as reduction in NADPH consumption pre-incubated for 15 mins followed by alpha-ketoglutarate substrate and NADPH addition after 45 mins by diaphorase and resazurin dye based assay
# [12] = Octanol/aqueous buffer partition coefficient, log D of the compound at pH 7.4; type: physicochemical
# [13] = Clearance in rat at 1 mg/kg, iv or 5 mg/kg, po; type: ADME, organism-based; details: in vivo
# [14] = Protein binding in human plasma; type: ADME, cell-free; details: read-out: PPB (converted)
# [15] = Apparent permeability of the compound across apical side to basolateral side in human Caco2 cells; type: ADME, cell-based; details: Caco-2
# [16] = Intrinsic clearance in human hepatocytes; type: ADME, cell-based, Hepatocyte; details: read-out: CLH
# [17] = Total AUC (infinity) in mouse at 1 mg/kg, iv or 5 mg/kg, po; type: ADME, organism-based; details: in vivo
# [18] = Permeability of the compound by PAMPA; type: ADME; details: read-out: permeability
# [19] = fAUC (infinity) in dog at 0.5 mg/kg, iv; type: ADME, organism-based, Canis lupus familiaris; details: in vivo
# [20] = fAUC (infinity) in rat at 1 mg/kg, iv or 5 mg/kg, po; type: ADME, organism-based; details: in vivo
# [21] = Half-life in dog at 0.5 mg/kg, iv; type: ADME, organism-based, Canis lupus familiaris; details: in vivo
# [22] = Efflux ratio of apparent permeability from basolateral side to apical side over apical side to basolateral side in human Caco2 cells; type: ADME, cell-based; details: Caco-2
# [23] = Protein binding in mouse plasma; type: ADME, cell-free; details: read-out: PPB (converted)
# [24] = fAUC (infinity) in mouse at 1 mg/kg, iv or 5 mg/kg, po; type: ADME, organism-based; details: in vivo
# [25] = Total Cmax in mouse at 1 mg/kg, iv or 5 mg/kg, po; type: ADME, organism-based; details: in vivo
# [26] = Apparent permeability of the compound across basolateral side to apical side in human Caco2 cells; type: ADME, cell-based; details: Caco-2
# [27] = Metabolic stability in rat liver microsomes assessed as compound remaining after 30 mins; type: ADME, Microsome; details: read-out: Stability
# [28] = Total AUC (infinity) in dog at 0.5 mg/kg, iv; type: ADME, organism-based, Canis lupus familiaris; set-up: dose 0.5 mg/kg, time AUCmax, route intravenous; details: in vivo
# [29] = Cmax in rat at 1 mg/kg, iv or 5 mg/kg, po; type: ADME, organism-based; details: in vivo
# [30] = target: Isocitrate dehydrogenase [NADP] cytoplasmic (Homo sapiens, UniProt O75874, R132L); experiment: Inhibition of human Myc-DDK-tagged IDH1 R132L mutant expressed in human U87MG cells assessed as reduction in 2-HG levels after 24 hrs by RapidFire high-throughput mass spectrometry assay; type: cell-based
# Isocitrate dehydrogenase [NADP] cytoplasmic (Homo sapiens, UniProt O75874, R132L), sequence (O75874 2-414 R132L limits assumed): as the sequence (O75874 2-414 R132C limits assumed) above, with C131L counted along it
# [31] = Oral bioavailability in mouse at 5 mg/kg; type: ADME, organism-based; details: in vivo
# [32] = Clearance in dog at 0.5 mg/kg, iv; type: ADME, organism-based, Canis lupus familiaris; details: in vivo
# [33] = Total AUC (infinity) in rat at 1 mg/kg, iv or 5 mg/kg, po; type: ADME, organism-based; details: in vivo
# [34] = Protein binding in dog plasma; type: ADME, cell-free, Canis lupus familiaris; details: read-out: PPB (converted)
# [35] = target: Isocitrate dehydrogenase [NADP] cytoplasmic (Homo sapiens, UniProt O75874, R132G); experiment: Inhibition of human Myc-DDK-tagged IDH1 R132G mutant expressed in human U87MG cells assessed as reduction in 2-HG levels after 24 hrs by RapidFire high-throughput mass spectrometry assay; type: cell-based
# Isocitrate dehydrogenase [NADP] cytoplasmic (Homo sapiens, UniProt O75874, R132G), sequence (O75874 2-414 R132G limits assumed): as the sequence (O75874 2-414 R132C limits assumed) above, with C131G counted along it
# [36] = Half-life in mouse at 1 mg/kg, iv or 5 mg/kg, po; type: ADME, organism-based; details: in vivo
# [37] = Half-life in human hepatocytes; type: ADME, cell-based, Hepatocyte
# [38] = Protein binding in rat plasma; type: ADME, cell-free; details: read-out: PPB (converted)
# [39] = Half-life in rat at 1 mg/kg, iv or 5 mg/kg, po; type: ADME, organism-based; details: in vivo
# [40] = target: Isocitrate dehydrogenase [NADP] cytoplasmic (Homo sapiens, UniProt O75874, R132S); experiment: Inhibition of human Myc-DDK-tagged IDH1 R132S mutant expressed in human U87MG cells assessed as reduction in 2-HG levels after 24 hrs by RapidFire high-throughput mass spectrometry assay; type: cell-based
# Isocitrate dehydrogenase [NADP] cytoplasmic (Homo sapiens, UniProt O75874, R132S), sequence (O75874 2-414 R132S limits assumed): as the sequence (O75874 2-414 R132C limits assumed) above, with C131S counted along it
# [41] = Oral bioavailability in rat at 5 mg/kg; type: ADME, organism-based; details: in vivo
# [42] = Clearance in mouse at 1 mg/kg, iv or 5 mg/kg, po; type: ADME, organism-based; details: in vivo
# [43] = Total plasma concentration in BALB/c mouse at 5 mg/kg, po at 4 hrs; type: ADME, organism-based
# [44] = species: Homo sapiens; type: cell-based
compound,measurement,setting,value
N#Cc1ccnc(N2C(=O)CC[C@H]2C(=O)N(c2cncc(F)c2)[C@H](C(=O)NC2CC(F)(F)C2)c2ccccc2Cl)c1 [IVOSIDENIB],"efflux ratio at 2 h, 10 µM",[1],> 350
Cc1nc(NCc2cc3cc(Cl)ccc3[nH]c2=O)ccc1C#N,IC50,[2],3210 nM
same,remaining at 0.5 h,[3],84%
same,half-life,[4],3.57 h
same,remaining at 0.5 h,[5],69%
same,IC50,[6],75000 nM
same,AUC(0-t) at 8 h,[7],2.66 µM·h
same,IC50,[8],258 nM
same,Cmax,[9],480 nM
same,solubility kinetic,[10],0.64 µM
same,IC50,[11],820 nM
COc1cc2[nH]c(=O)c([C@H](C)Nc3ncc(C#N)c(OC)n3)cc2cc1Cl,logD,[12],2.74
same,clearance,[13],16.4 mL/min/kg
same,IC50,[2],40 nM
same,fraction unbound,[14],0.0144
same,remaining at 0.5 h,[3],97%
same,Papp A→B,[15],5.73 ×10⁻⁶ cm/s
same,CLint scaled,[16],19.1 mL/min/kg
same,AUC(0-inf),[17],21.5 µM·h
same,Papp,[18],12.7 ×10⁻⁶ cm/s
same,fAUC,[19],0.132 µM·h
same,fAUC,[20],0.043 µM·h
same,half-life,[21],6.2 h
same,efflux ratio,[22],1.65
same,fraction unbound,[23],0.0083
same,fAUC,[24],0.178 µM·h
same,Cmax,[25],5200 nM
same,Papp B→A,[26],9.47 ×10⁻⁶ cm/s
same,remaining at 0.5 h,[27],88%
same,AUC(0-inf),[28],5.8 µM·h
same,Cmax,[29],1900 nM
same,IC50,[30],5 nM
same,bioavailability,[31],85%
same,clearance,[32],4.3 mL/min/kg
same,IC50,[8],4 nM
same,AUC(0-inf),[33],10.7 µM·h
same,fraction unbound,[34],0.0228
same,solubility kinetic,[10],5.7 µM
same,IC50,[35],3 nM
same,half-life,[36],3.5 h
same,IC50,[11],36 nM
same,half-life,[37],3.07 h
same,fraction unbound,[38],0.0045
same,half-life,[39],2.6 h
same,IC50,[40],129 nM
same,bioavailability,[41],75%
same,clearance,[42],8.5 mL/min/kg
COc1cc(NCc2cc3cc(Cl)ccc3[nH]c2=O)ccc1C#N,IC50,[2],1920 nM
same,remaining at 0.5 h,[3],81%
same,half-life,[4],1.27 h
same,remaining at 0.5 h,[5],42%
same,concentration at 4 h,[43],100 nM
same,IC50,[6],100000 nM
same,AUC(0-t) at 8 h,[7],2.45 µM·h
same,Ratio IC50,[44],4
same,IC50,[8],1250 nM
same,Cmax,[9],1060 nM
same,solubility kinetic,[10],0.43 µM
same,IC50,[11],2250 nM
